The values that follow come from patent US10765754B2, “Compositions and methods related to inhibition of respiratory syncytial virus entry” (priority 2015, dated 2020).

One assay deals with T1, RSV-A/IZN45 (Human respiratory syncytial virus A, UniProt P03420).
T1 construct: N-trimer Mimics Synthesized; made in house; host or cells: chemical peptide synthesis
The assay can be described thus: SPR binding to RSV-A IZN45 N-trimer mimic. An excerpt: (§1) IZN45 N-trimer mimic comprises the IZ domain, a highly soluble, designed coiled-coil that helps solubilize the N-trimer, along with the C-terminal (bottom) 45 residues of the RSV N-trimer. IZN45 encompasses the full ordered portion of the N-trimer except for three N-terminal residues (removed to maintain a continuous heptad repeat with the IZ domain). The interactions between 35-residue RSV C-peptides, T108 and T118 (Lambert et al., 1996, Proc. Natl. Acad. Sci. USA 93:2186-2191), and IZN45 was examined by surface plasmon resonance (SPR). SPR is a gold standard assay to measure the kinetics and affinity of biological interactions. […] The Biotinylated L-form of RSV target IZN45 was captured onto one lane of a NeutrAvidin coated SPR chip. A mutant version of IZN45 containing four mutated residues along the N-trimer groove designed to disrupt binding (IZN45 Full Mut, negative control) was captured onto a separate lane of the NeutrAvidin chip. T118, corresponding to the C-terminal portion of the RSV F ectodomain, which is known to interact with the RSV N-trimer groove, was flowed over the various surfaces. […] The surfaces were regenerated with a detergent (0.1% SDS) after each injection of analyte. Various concentrations of T118 were measured in duplicate or triplicate injections. D-peptide interactions with IZN45 and IZN45-Full Mut surfaces were also measured using this method.
(§2) Peptides from the ‘winning’ phage clones from each library were synthesized as D-peptides. If solubility of the peptides was limited, N- or C-terminal charged residue(s) (e.g., lysine) were attached as necessary as previously described for HIV peptides in Eckert et al., 1999, Cell 99:103-15, incorporated by reference in its entirety. Binding affinity and kinetics of the D-peptide inhibitors to the IZN45 and IZN45 mutants was characterized by SPR (Biacore 3000), using methods as described in Welch et al., 2007, Proc. Natl. Acad. Sci. USA 104:16828-33, incorporated by reference in its entirety.
A general note: SPR reads the build-up and loss of mass on a sensor chip optically.

In a further assay the target is T2, RSV-B/IZN45 (Human respiratory syncytial virus B, UniProt O36634).
T2 construct: N-trimer Mimics Synthesized; made in house; host or cells: chemical peptide synthesis
T2 sequence (O36634 163-207, added parts left off): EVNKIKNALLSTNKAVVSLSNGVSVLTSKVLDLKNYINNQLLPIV
Kind of assay: biochemical. The assay is classed as binding.
Excerpt: as §1, §2

Where [1] appears, read: Kd, synthesized peptide, RSV-A/IZN45, KD determined by SPR.
Where [2] appears, read: synthesized peptide, RSV-B/IZN45, KD determined by SPR.
The mark [3] stands for this setting: Kd, subsequent trimer/compound made from peptide, RSV-A/IZN45, SPR.

Starred links: 1 amine or outer side, 2 acyl side, 3 side chain; linkers in the order of their positions; H or OH if unused. Positions of bridges follow the written chain, without caps; N, C: chain ends. Non-standard residues stand in square brackets, D forms with d. Residues, ends and D or L forms follow the SMILES beside them. Chains are numbered I, II in the order given. No end group written: not given here. X1 = NCCOCCOCCOCCOCCOCCOCCOCCOCCOCCOCCOCCOCCOCCOCCOCCOCCOCCOCCOCCOCCOCCOCCOCCOCCOCCOCCOCCOCCC(=O)NC(CCC(=O)[*:1])(CCC(=O)[*:2])CCC(=O)[*:3]; X2 = CC(COCCC(=O)[*:1])(COCCC(=O)[*:2])COCCC(=O)[*:3]; PEG6 = NCCOCCOCCOCCOCCOCCOCCC(=O)O

T1 sequence (P03420 163-207, added parts left off): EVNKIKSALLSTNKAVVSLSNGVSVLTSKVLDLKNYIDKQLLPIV

Broadly, the Kd is a measure of binding affinity in units of concentration. Turning to `CSCC[C@@H](NC(=O)[C@@H](CO)NC(=O)CNC(=O)[C@@H](CC(=O)O)NC(=O)[C@@H](CC(=O)O)NC(=O)CCOCCOCCOCCOCCOCCOCCNC(=O)[C@@H](CCCCN)NC(C)=O)C(=O)N[C@@H]1CSSC[C@H](C(=O)NCC(=O)N[C@@H](C(N)=O)[C@H](C)O)NC(=O)[C@@H](Cc2c[nH]c3ccccc23)NC(=O)[C@@H](CC(=O)O)NC(=O)[C@@H](CC(C)C)NC(=O)[C@@H](CC(C)C)NC(=O)[C@@H](Cc2c[nH]c3ccccc23)NC(=O)[C@@H](CCC(=O)O)NC(=O)[C@H]2CCCN2C(=O)[C@@H](CCCNC(=N)N)NC(=O)[C@@H](CC(N)=O)NC(=O)[C@@H](C(C)C)NC1=O` [Ac-K(PEG6)DDG-RSVP24] (Ac-[dK][PEG6][dD][dD]G[dS][dM][dC][dV][dN][dR][dP][dE][dW][dL][dL][dD][dW][dC]G[dT]-NH2; disulfide 8-19), the Kd at RSV-A/IZN45 (setting [1]) came out at 2100 nM; on RSV-B/IZN45 (setting [2]) it was 1800 nM.

For `CC[C@@H](C)[C@@H](N)C(=O)N[C@H](CO)C(=O)N[C@H](CC(C)C)C(=O)N1CCC[C@@H]1C(=O)N[C@@H](C(=O)N1CCC[C@@H]1C(=O)N[C@@H](C(=O)N[C@H](Cc1c[nH]c2ccccc12)C(=O)N[C@H](Cc1c[nH]c2ccccc12)C(=O)N1CCC[C@@H]1C(=O)N[C@H](CO)C(=O)N[C@@H](C(=O)NCC(=O)N[C@H](CCCCN)C(N)=O)[C@H](C)O)[C@H](C)O)[C@H](C)O` [X12-45-GK] (H-[dI][dS][dL][dP][dT][dP][dT][dW][dW][dP][dS][dT]G[dK]-NH2), the dissociation constant Kd at RSV-B/IZN45 (setting [2]) is 6000 nM.

The molecule `CC[C@@H](C)[C@@H](NC(=O)[C@H](NC(=O)[C@@H](CCCCN)NC(=O)[C@H](N)CO)C(C)C)C(=O)N[C@H](CC(C)C)C(=O)N1CCC[C@@H]1C(=O)N[C@H](CCC(=O)O)C(=O)N1CCC[C@@H]1C(=O)N[C@H](Cc1ccccc1)C(=O)N[C@H](Cc1c[nH]c2ccccc12)C(=O)N[C@H](Cc1c[nH]c2ccccc12)C(=O)N1CCC[C@@H]1C(=O)NCC(=O)NCC(N)=O` [X12-47-GG] (H-[dS][dK][dV][dI][dL][dP][dE][dP][dF][dW][dW][dP]GG-NH2) came in with a Kd on RSV-B/IZN45 (setting [2]) of 17000 nM.

As to `CC[C@@H](C)[C@@H](NC(=O)[C@H](NC(=O)[C@@H](CCCCN)NC(=O)[C@H](N)CO)C(C)C)C(=O)N[C@H](CC(C)C)C(=O)N1CCC[C@@H]1C(=O)N[C@H](CCC(=O)O)C(=O)N1CCC[C@@H]1C(=O)N[C@H](Cc1ccccc1)C(=O)N[C@H](Cc1c[nH]c2ccccc12)C(=O)N[C@H](Cc1c[nH]c2ccccc12)C(=O)N1CCC[C@@H]1C(N)=O` [X12-47] (H-[dS][dK][dV][dI][dL][dP][dE][dP][dF][dW][dW][dP]-NH2), at RSV-B/IZN45 (setting [2]), the Kd came to 10000 nM. This Kd lies about 1.7-fold lower than the previous one.

For the molecule `CSCC[C@@H](NC(=O)[C@@H](Cc1c[nH]c2ccccc12)NC(=O)[C@@H](Cc1c[nH]c2ccccc12)NC(=O)[C@@H](Cc1ccc(O)cc1)NC(=O)[C@@H](CCCCN)NC(=O)[C@@H](CC(C)C)NC(=O)[C@H](N)CO)C(=O)N[C@H](CCC(=O)O)C(=O)N[C@H](CCC(=O)O)C(=O)N[C@H](CC(C)C)C(=O)N1CCC[C@@H]1C(=O)N[C@H](CC(C)C)C(=O)N1CCC[C@@H]1C(=O)N[C@H](CCCCN)C(=O)N[C@H](Cc1c[nH]c2ccccc12)C(=O)N[C@H](Cc1c[nH]c2ccccc12)C(=O)NCC(=O)NCC(N)=O` [X16-18-GG] (H-[dS][dL][dK][dY][dW][dW][dM][dE][dE][dL][dP][dL][dP][dK][dW][dW]GG-NH2), the Kd on RSV-B/IZN45 (setting [2]) was found to be 24000 nM.

At RSV-B/IZN45 (setting [2]), `CSCC[C@@H](NC(=O)[C@@H](Cc1c[nH]c2ccccc12)NC(=O)[C@@H](Cc1c[nH]c2ccccc12)NC(=O)[C@@H](Cc1ccc(O)cc1)NC(=O)[C@@H](CCCCN)NC(=O)[C@@H](CC(C)C)NC(=O)[C@H](N)CO)C(=O)N[C@H](CCC(=O)O)C(=O)N[C@H](CCC(=O)O)C(=O)N[C@H](CC(C)C)C(=O)N1CCC[C@@H]1C(=O)N[C@H](CC(C)C)C(=O)N1CCC[C@@H]1C(=O)N[C@H](CCCCN)C(=O)N[C@H](Cc1c[nH]c2ccccc12)C(=O)N[C@H](Cc1c[nH]c2ccccc12)C(N)=O` [X16-18] (H-[dS][dL][dK][dY][dW][dW][dM][dE][dE][dL][dP][dL][dP][dK][dW][dW]-NH2) returned a Kd of 16000 nM.

The molecule `CC[C@@H](C)[C@@H](NC(=O)[C@@H](CC(=O)O)NC(=O)[C@@H](CC(=O)O)NC(=O)[C@@H](Cc1c[nH]c2ccccc12)NC(=O)[C@@H](Cc1c[nH]c2ccccc12)NC(=O)[C@H]1CCCN1C(=O)[C@@H](CCC(N)=O)NC(=O)[C@@H](CC(C)C)NC(=O)[C@H]1CCCN1C(=O)[C@@H](CC(C)C)NC(=O)[C@@H](Cc1c[nH]c2ccccc12)NC(=O)[C@H](N)Cc1c[nH]cn1)C(=O)N1CCC[C@@H]1C(=O)N[C@@H](C(=O)N[C@H](Cc1c[nH]c2ccccc12)C(=O)N[C@H](Cc1c[nH]cn1)C(=O)NCC(=O)N[C@H](CCCCN)C(N)=O)C(C)C` [X16-20-GK] (H-[dH][dW][dL][dP][dL][dQ][dP][dW][dW][dD][dD][dI][dP][dV][dW][dH]G[dK]-NH2) yielded a Kd on RSV-B/IZN45 (setting [2]) of 2000 nM.

As for “I: Ac-[dI][dS][dL][dP][dT][dP][dT][dW][dW][dP][dS][dT]GG[PEG6][dK]-NH2 / II: Ac-[dI][dS][dL][dP][dT][dP][dT][dW][dW][dP][dS][dT]GG[PEG6][dK]-NH2 / III: Ac-[dI][dS][dL][dP][dT][dP][dT][dW][dW][dP][dS][dT]GG[PEG6][dK]-NH2 (linker I:16-II:16-III:16 via X2; C-terminus assumed) [Ac-X12-45-GG(PEG6)K-trimer]”, the dissociation constant Kd amounted to 49 nM on RSV-A/IZN45 (KD, FIG. 10A, RSV-A version of IZN45); 53 nM on RSV-A/IZN45 (setting [3]); 66 nM on RSV-B/IZN45 (FIG. 10B, RSV-B version of IZN45).

“I: Ac-[dK][PEG6]G[dA][dC][dT][dN][dR][dA][dE][dW][dL][dI][dD][dW][dC][dA][dA]-NH2 / II: Ac-[dK][PEG6]G[dA][dC][dT][dN][dR][dA][dE][dW][dL][dI][dD][dW][dC][dA][dA]-NH2 / III: Ac-[dK][PEG6]G[dA][dC][dT][dN][dR][dA][dE][dW][dL][dI][dD][dW][dC][dA][dA]-NH2 (linker I:1-II:1-III:1 via X1; disulfide I:5-I:16, II:5-II:16, III:5-III:16; C-terminus assumed) [Ac-K(PEG6)-RSVP21-trimer]”: the Kd on RSV-A/IZN45 (setting [3]) is 0.3 nM; at RSV-B/IZN45 (subsequent trimer/compound made from peptide, RSV-B/IZN45, SPR), 1.8 nM.

On RSV-A/IZN45 (setting [1]), “I: H-[dK]G[dR][dW][dF][dE][dL][dP][dE][dP][dD][dW][dW]G[PEG6][dK]G[dK]G-NH2 / II: H-[dK]G[dR][dW][dF][dE][dL][dP][dE][dP][dD][dW][dW]G[PEG6] / III: H-[dK]G[dR][dW][dF][dE][dL][dP][dE][dP][dD][dW][dW]G[PEG6] (amide I:16-II:C, I:18-III:C) [KG-RSVP1-G(PEG6)-Tricasso]” displayed a Kd of approximately 20 nM.

For “I: H-[dR][dW][dF][dE][dL][dP][dE][dP][dD][dW][dW]G[dK][PEG6][dK]G[dK]G-NH2 / II: H-[dR][dW][dF][dE][dL][dP][dE][dP][dD][dW][dW]G[dK][PEG6] / III: H-[dR][dW][dF][dE][dL][dP][dE][dP][dD][dW][dW]G[dK][PEG6] (amide I:15-II:C, I:17-III:C) [RSVP1-GK(PEG6)-Tricasso]”, the Kd at RSV-A/IZN45 (setting [1]) was approximately 20 nM.

The molecule “I: [dK]G[dR][dW][dF][dE][dL][dP][dE][dP][dE][dW][dW]G[PEG6][dK]G[dK]G-NH2 / II: [dK]G[dR][dW][dF][dE][dL][dP][dE][dP][dE][dW][dW]G[PEG6] / III: [dK]G[dR][dW][dF][dE][dL][dP][dE][dP][dE][dW][dW]G[PEG6] (amide I:16-II:C, I:18-III:C) [KG-RSVP7-G(PEG6)-Tricasso]” showed a Kd at RSV-A/IZN45 (setting [1]) of approximately 20 nM.
